Test results reported in US20140031227A1, “HERBICIDAL COMPOSITIONS COMPRISING 4-AMINO-3-CHLORO-5-FLUORO-6-(4-CHLORO-2-FLUORO-3-METHOXYPHENYL) PYRIDINE-2-CARBOXYLIC ACID OR A DERIVATIVE THEREOF AND GLYPHOSATE OR GLUFOSINATE” (DOW AGROSCIENCES LLC, priority 2012, published 2014).
Structures can show the parent of a compound that is named as a salt.

How the values were obtained:
Type in all cases: in vivo
[1] = test system: IPOHE (Ipomoea hederacea Jacq., ivyleaf morningglory); experiment: Example I postemergence foliar-applied mixtures, direct seeded rice weeds, greenhouse: IPOHE
Procedure: (§1) Seeds or nutlets of the desired test plant species were planted in a soil matrix prepared by mixing a loam or sandy loam soil (e.g., 28.6 percent silt, 18.8 percent clay, and 52.6 percent sand, with a pH of about 5.8 and an organic matter content of about 1.8 percent) and calcareous grit in an 80 to 20 ratio. The soil matrix was contained in plastic pots with a volume of 1 quart and a surface area of 83.6 square centimeters (cm^2). […] The plants were grown for 8-22 days in a greenhouse with an approximate 14 hr photoperiod which was maintained at about 29° C. during the day and 26° C. during the night. Nutrients (Peters Excel® 15-5-15 5-Ca 2-Mg and iron chelate) were applied in the irrigation solution as needed and water was added on a regular basis. Supplemental lighting was provided with overhead metal halide 1000-Watt lamps as necessary. The plants were employed for testing when they reached the first through fourth true leaf stage.
(§2) Treatments consisted of the acid or esters of 4-amino-3-chloro-5-fluoro-6-(4-chloro-2-fluoro-3-methoxy-phenyl)pyridine-2-carboxylic acid (Compound A), each formulated as an SC (suspension concentrate), and various herbicidal components alone and in combination. Forms of compound A were applied on an acid equivalent basis.
(§3) For treatments comprised of formulated compounds, measured amounts of compounds were placed individually in 25 mL glass vials and diluted in a volume of 1.25% (v/v) Agri-Dex® crop oil concentrated to obtain 12× stock solutions. […] Application solutions were prepared by adding an appropriate amount of each stock solution (e.g., 1 mL) and diluted to the appropriate final concentrations with the addition of 10 mL of an aqueous mixture of 1.25% (v/v) crop oil concentrate so that the final spray solutions contained 1.25+/−0.05% (v/v) crop oil concentrate.
(§4) All stock solutions and applications solutions were visually inspected for compound compatibility prior to application. Spray solutions were applied to the plant material with an overhead Mandel track sprayer equipped with a 8002E nozzles calibrated to deliver 187 L/ha over an application area of 0.503 m^2 at a spray height of 18 to 20 inches (46 to 50 cm) above average plant canopy height. Control plants were sprayed in the same manner with the solvent blank.
(§5) The treated plants and control plants were placed in a greenhouse as described above and watered by sub-irrigation to prevent wash-off of the test compounds. After approximately 3 weeks, the condition of the test plants as compared with that of the untreated plants was determined visually and scored on a scale of 0 to 100 percent where 0 corresponds to no injury or growth inhibition and 100 corresponds to complete kill.
(§6) Colby's equation was used to determine the herbicidal effects expected from the mixtures (Colby, S. R. 1967. Calculation of the synergistic and antagonistic response of herbicide combinations. Weeds 15:20-22.).

[2] = test system: CYPDI (Cyperus difformis L., smallflower umbrella sedge); experiment: Example I postemergence foliar-applied mixtures, direct seeded rice weeds, greenhouse: CYPDI
Procedure: as §1, §2, §3, §4
as §5, with “kill. […]” for “kill.”

[3] = test system: LEFCH (Leptochloa chinensis (L.) Nees, Chinese sprangletop); experiment: Example I postemergence foliar-applied mixtures, direct seeded rice weeds, greenhouse: LEFCH
Procedure: as §1, §2, §3, §4, §5, §6

[4] = test system: DIGSA (Digitaria sanguinalis (L.) Scop., large crabgrass); experiment: Example I postemergence foliar-applied mixtures, direct seeded rice weeds, greenhouse: DIGSA
Procedure: as §1, §2, §3, §4, §5, §6

[5] = test system: ECHCG (Echinochloa crusgalli (L.) Beauv., barnyardgrass); experiment: Example I postemergence foliar-applied mixtures, direct seeded rice weeds, greenhouse: ECHCG
Procedure: as §1, §2, §3, §4, §5, §6

[6] = test system: SORHA (Sorghum halepense (L.) Pers., johnsongrass); experiment: Example III postemergence foliar-applied mixtures, row crop weeds (corn, soybean), greenhouse: SORHA
Procedure: Seeds or nutlets of the desired test plant species were planted in a soil matrix prepared by mixing a loam or sandy loam soil (e.g., 43 percent silt, 19 percent clay, and 38 percent sand, with a pH of about 8.1 and an organic matter content of about 1.5 percent) and calcareous grit in an 80 to 20 ratio. The soil matrix was contained in plastic pots with a surface area of 84.6 square centimters (cm^2) and a volume of 560 cubic centimeters (cm^3). […] The plants were grown for 7-31 days (d) in a greenhouse with an approximate 15 hour (h) photoperiod which was maintained at about 23-29° C. during the day and 22-28° C. during the night. Nutrients (Peters Excel® 15-5-15 5-Ca 2-Mg) and water were added on a regular basis and supplemental lighting was provided with overhead metal halide 1000-Watt lamps as necessary. The plants were employed for testing when they reached the first, second, or third true leaf stage.
Treatments consisted of the acid or esters of 4-amino-3-chloro-5-fluoro-6-(4-chloro-2-fluoro-3-methoxy-phenyl)pyridine-2-carboxylic acid (Compound A), each formulated as an
SC (suspension concentrate), and various herbicidal components alone and in combination. Forms of compound A were applied on an acid equivalent basis.
Other herbicidal components were applied on an acid equivalent or active ingredient basis and included the 5-enolpyruvylshikimate-3-phosphate synthase (EPSPS)-inhibiting herbicide, glyphosate dimethylamine salt, formulated as Durango DMA® and the glutamine synthase (GS)-inhibiting herbicide, glufosinate ammonium, formulated as Ignite® 280.
For treatments comprised of formulated compounds, measured amounts of compounds were placed individually in 25 mL glass vials and diluted in a volume of 1.5% (v/v) Agri-dex® crop oil concentrate to obtain 6× stock solutions. […] Application solutions were prepared by adding an appropriate amount of each stock solution (typically 2 mL) and diluted to the appropriate final concentrations with the addition of an aqueous mixture of 1.5% (v/v) crop oil concentrate and water so that the final spray solutions contained 1.25% (v/v) crop oil concentrate.
All stock solutions and applications solutions were visually inspected for compound compatibility prior to application. Compound requirements are based upon a 12 mL application volume at a rate of 187 liters per hectare (L/ha). Formulated compounds were applied to the plant material with an overhead Mandel track sprayer equipped with 8002E nozzles calibrated to deliver 187 L/ha over an application area of 0.503 square meters (m^2) at a spray height of 18 to 20 inches (46 to 50 cm) above the average plant canopy height. Control plants were sprayed in the same manner with the solvent blank.
as §5, with “2” for “3”
The following equation was used to calculate the expected activity of mixtures containing two active ingredients, A and B: […]

[7] = test system: ECHCO (Echinochloa colona (L.) Link, junglerice); experiment: Example I postemergence foliar-applied mixtures, direct seeded rice weeds, greenhouse: ECHCO
Procedure: as §1, §2, §3, §4, §5, §6

[8] = Compound A Acid alone, 4.38 gae/ha
[9] = Compound A Acid alone, 8.75 gae/ha
[10] = Compound A Acid alone, 17.5 gae/ha
[11] = Compound A Acid alone, 19.4 gae/ha
[12] = Compound A Acid alone, 3.75 gae/ha
[13] = glufosinate ammonium alone, 135.5 gae/ha
[14] = glufosinate ammonium alone, 271 gae/ha
[15] = Compound A Benzyl Ester alone, 4.38 gae/ha
[16] = Compound A Benzyl Ester alone, 8 gae/ha
[17] = Compound A Benzyl Ester alone, 8.75 gae/ha
[18] = Compound A Benzyl Ester alone, 16 gae/ha
[19] = Compound A Benzyl Ester alone, 17.5 gae/ha

## COc1c(Cl)ccc(-c2nc(C(=O)O)c(Cl)c(N)c2F)c1F [Compound A Acid, 4-amino-3-chloro-6-(4-chloro-2-fluoro-3-methoxyphenyl)-5-fluoropyridine-2-carboxylic acid]
[1]; [8]
  Visual Weed Control (%) - 21 DAA IPOHE Obs: 10%
[1]; [9]
  Visual Weed Control (%) - 21 DAA IPOHE Obs: 35%
[1]; [10]
  Visual Weed Control (%) - 21 DAA IPOHE Obs: 45%
[2]; [8]
  Visual Weed Control (%) - 21 DAA CYPDI Obs: 50%
[2]; [9]
  Visual Weed Control (%) - 21 DAA CYPDI Obs: 85%
[3]; Compound A Acid alone, 17.5 gae/ha (Table 2)
  Visual Weed Control (%) - 21 DAA LEFCH Obs: 30%
[3]; Compound A Acid alone, 17.5 gae/ha (Tables 1, 9)
  Visual Weed Control (%) - 21 DAA LEFCH Obs: 0%
[3]; [11]
  Visual Weed Control (%) - 20 DAA LEFCH Obs: 5%
[4]; [8]
  Visual Weed Control (%) - 21 DAA DIGSA Obs: 35%
[4]; [9]
  Visual Weed Control (%) - 21 DAA DIGSA Obs: 50%
[4]; [10]
  Visual Weed Control (%) - 21 DAA DIGSA Obs: 40%
[4]; [11]
  Visual Weed Control (%) - 20 DAA DIGSA Obs: 13%
[5]; [8]
  Visual Weed Control (%) - 21 DAA ECHCG Obs: 15%
[5]; [9]
  Visual Weed Control (%) - 21 DAA ECHCG Obs: 50%
[6]; [12]
  Visual Weed Control (%) - 13 DAA SORHA Obs: 0%
  Visual Weed Control (%) - 16 DAA SORHA Obs: 0%
[6]; Compound A Acid alone, 7.5 gae/ha
  Visual Weed Control (%) - 13 DAA SORHA Obs: 0%
[6]; Compound A Acid alone, 15 gae/ha
  Visual Weed Control (%) - 13 DAA SORHA Obs: 0%
[7]; Compound A Acid alone, 4.38 gae/ha (Table 2)
  Visual Weed Control (%) - 21 DAA ECHCO Obs: 60%
[7]; Compound A Acid alone, 4.38 gae/ha (Tables 1, 9)
  Visual Weed Control (%) - 21 DAA ECHCO Obs: 70%
[7]; Compound A Acid alone, 8.75 gae/ha (Table 2)
  Visual Weed Control (%) - 21 DAA ECHCO Obs: 90%
[7]; Compound A Acid alone, 8.75 gae/ha (Tables 1, 9)
  Visual Weed Control (%) - 21 DAA ECHCO Obs: 75%

## CP(=O)(O)CCC(N)C(=O)O (stereo not shown) [Glufosinate ammonium salt, 2-amino-4-(hydroxymethylphosphinyl)butanoic acid monoammonium salt, reference compound]
[1]; glufosinate ammonium alone, 112.5 gai/ha
  Visual Weed Control (%) - 21 DAA IPOHE Obs: 10%
[1]; glufosinate ammonium alone, 542 gai/ha
  Visual Weed Control (%) - 20 DAA IPOHE Obs: 50%
[2]; [13]
  Visual Weed Control (%) - 21 DAA CYPDI Obs: 0%
[2]; [14]
  Visual Weed Control (%) - 21 DAA CYPDI Obs: 0%
[3]; [13]
  Visual Weed Control (%) - 21 DAA LEFCH Obs: 0%
[3]; [14]
  Visual Weed Control (%) - 21 DAA LEFCH Obs: 10%
[4]; [13]
  Visual Weed Control (%) - 21 DAA DIGSA Obs: 0%
[5]; [13]
  Visual Weed Control (%) - 21 DAA ECHCG Obs: 60%
[5]; [14]
  Visual Weed Control (%) - 21 DAA ECHCG Obs: 10%
[6]; [14]
  Visual Weed Control (%) - 13 DAA SORHA Obs: 20%
[6]; glufosinate ammonium alone, 542 gae/ha
  Visual Weed Control (%) - 13 DAA SORHA Obs: 25%
[7]; [13]
  Visual Weed Control (%) - 21 DAA ECHCO Obs: 0%
[7]; [14]
  Visual Weed Control (%) - 21 DAA ECHCO Obs: 0%

## COc1c(Cl)ccc(-c2nc(C(=O)OCc3ccccc3)c(Cl)c(N)c2F)c1F [Compound A Benzyl Ester]
[1]; [15]
  Visual Weed Control (%) - 21 DAA IPOHE Obs: 10%
[1]; [16]
  Visual Weed Control (%) - 21 DAA IPOHE Obs: 10%
[1]; [17]
  Visual Weed Control (%) - 21 DAA IPOHE Obs: 10%
[1]; [18]
  Visual Weed Control (%) - 20 DAA IPOHE Obs: 18%
  Visual Weed Control (%) - 21 DAA IPOHE Obs: 10%
[1]; [19]
  Visual Weed Control (%) - 21 DAA IPOHE Obs: 25%
[1]; Compound A Benzyl Ester alone, 32 gae/ha
  Visual Weed Control (%) - 21 DAA IPOHE Obs: 45%
[3]; [15]
  Visual Weed Control (%) - 21 DAA LEFCH Obs: 0%
[3]; [17]
  Visual Weed Control (%) - 21 DAA LEFCH Obs: 40%
[3]; [19]
  Visual Weed Control (%) - 21 DAA LEFCH Obs: 45%
[4]; [16]
  Visual Weed Control (%) - 21 DAA DIGSA Obs: 25%
[4]; [18]
  Visual Weed Control (%) - 20 DAA DIGSA Obs: 18%
  Visual Weed Control (%) - 21 DAA DIGSA Obs: 30%
[5]; [15]
  Visual Weed Control (%) - 21 DAA ECHCG Obs: 10%
[5]; [17]
  Visual Weed Control (%) - 21 DAA ECHCG Obs: 85%
[6]; Compound A Benzyl Ester alone, 3.75 gae/ha
  Visual Weed Control (%) - 13 DAA SORHA Obs: 0%
[6]; Compound A Benzyl Ester alone, 7.5 gae/ha
  Visual Weed Control (%) - 13 DAA SORHA Obs: 0%
[6]; Compound A Benzyl Ester alone, 15 gae/ha
  Visual Weed Control (%) - 13 DAA SORHA Obs: 10%
[7]; [15]
  Visual Weed Control (%) - 21 DAA ECHCO Obs: 70%
[7]; [17]
  Visual Weed Control (%) - 21 DAA ECHCO Obs: 75%
